Assay results: patent EP0181129B1, “N6-substituted deoxyribose analogs of adenosines” (WARNER-LAMBERT COMPANY, priority 1984, dated 1986)
Where two headings read alike, the source gives them in different places.

Columns and labels:
adenosine A2 receptor = target: T1, adenosine A2 receptor (Rattus norvegicus, UniProt P30543); assay: Adenosine Receptor Binding - A2 Receptor Affinity (RBA2), [3H]NECA displacement; conditions: 4 nM [3H]NECA with 50 nM N6-cyclopentyladenosine, rat striatal membranes, 60 minutes at 25°C; read-out: Receptor Binding RBA—2
T1 construct: Brains were thawed and then kept on ice while the striata were dissected out; tissue Pel-Freez (Rogers, Arkansas); host or cells: rat striatum, membranes
Protocol: Brains from 200-500 g mixed sex Sprague-Dawley rats were purchased from Pel-Freez (Rogers, Arkansas). Fresh brains from male Long-Evans hooded rats (Blue Spruce Farms, Altamont, NY) gave essentially indentical results. Brains were thawed and then kept on ice while the striata were dissected out. Striata were disrupted in 10 vol of ice-cold 50 mM Tris.HCI (pH 7.7 at 25°C, pH 8.26 at 5°C) (Tris) for 30 seconds in a Polytron PT―10 (Brinkmann) at setting 5. The suspension was centrifuged at 50,000 xg for ten minutes, the supernatant discarded, the pellet resuspended in 10 vol ice-cold Tris as above, recentrifuged, resuspended at 1 g/5 ml, and stored in plastic vials at -70°C (stable for at least six months). When needed, tissue was thawed at room temperature, disrupted in a Polytron, and kept on ice until used.
All incubations were for 60 minutes at 25°C in 12x75 mm glass tubes containing 1 ml Tris with 5 mg original tissue weight of rat weight of rat striatal membranes, 4 nM [^3H]-N-ethyl adenosine-5'-carboxamide ([^3H]NECA), 50 nM N^6-cyclopentyladenosine (to eliminate A1 receptor binding), 10 mM MgCl2, 0.1 units/ml, of adenosine deaminase and 1% dimethylsulfoxide. N^6-Cyclopentyladenosine was dissolved at 10 mM in 0.02 N HCI and diluted in Tris. Stock solutions and dilutions of N^6-cyclopentyladenosine could be stored at -20°C for several months. Test compounds were dissolved at 10 mM in dimethylsulfoxide or the same day as the experiment, and diluted in dimethylsulfoxide to 100x the final incubation concentration. Control incubations received an equal volume (10 µl) of dimethylsulfoxide; the resulting concentration of dimethylsulfoxide had no effect on binding. [^3H]NECA was diluted to 40 nM in Tris. The membrane suspension (5 mg/0.79 ml) contained sufficient MgCl2 and adenosine deaminase to give 10 mM and 0.1 units/ml, respectively, final concentration in the incubation. […] After all additions, the rack of tubes was vortexed, and the tubes were then incubated for 60 min at 25°C in a shaking water bath. The rack of tubes was vortexed an additonal time halfway through the incubation.
Incubations were terminated by filtration through 2.4 cm GF/B filters under reduced pressure. Each tube was filtered as follows: the contents of the tube were poured onto the filter, 4 ml of ice-cold Tris were added to the tube and the contents poured onto the filter, and the filter was washed twice with 4 ml of ice-cold Tris. The filtration was complete in about twelve seconds. Filters were put in scintillation vials, 8 ml of Formula 947 scintillation fluid added, and the vials left overnight, shaken, and counted in a liquid scintillation counter at 40% efficiency.
Nonspecific binding was defined as binding in the presence of […] N^6-cyclopentyladenosine, and specific binding was defined as total binding minus nonspecific binding. The IC50 was calculated by weighted nonlinear least squares curve-fitting to the mass-action equation. [formula] • where Y is cpm bound T is cpm total binding without drug S is cpm specific binding without drug D is the concentration of drug • and K is the IC50 of the drug Weighting factors were calculated under the assumption that the standard deviation was proportional to the predicted value of Y. Nonspecific binding was treated as a very large (infinite) concentration of drug in the computer analysis.

adenosine A1 receptor = target: T2, adenosine A1 receptor (Rattus norvegicus, UniProt P25099); assay: Adenosine Receptor Binding - A1 Receptor Affinity (RBA1), [3H]-CHA displacement; conditions: rat whole brain membranes, one hour at 25°C
T2 construct: brain minus cerebellum and brainstem from male Long Evans rats (150-200 g) was homogenized; from tissue; host or cells: rat whole brain minus cerebellum and brainstem, membrane homogenate
T2 sequence (P25099 1-326): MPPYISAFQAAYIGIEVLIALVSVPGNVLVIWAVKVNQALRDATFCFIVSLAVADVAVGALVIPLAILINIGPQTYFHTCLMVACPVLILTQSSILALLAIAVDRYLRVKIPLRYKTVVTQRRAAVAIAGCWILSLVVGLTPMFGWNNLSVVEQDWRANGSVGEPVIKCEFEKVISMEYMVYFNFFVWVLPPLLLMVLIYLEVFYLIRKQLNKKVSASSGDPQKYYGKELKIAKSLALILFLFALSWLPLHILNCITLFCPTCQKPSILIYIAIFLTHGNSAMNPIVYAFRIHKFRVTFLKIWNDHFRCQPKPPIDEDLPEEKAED
Protocol: While brain minus cerebellum and brainstem from male Long Evans rats (150-200 g) was homogenized in 30 volumes of ice-cold 0.05 M Tris-CHI buffer pH 7.7 using a Brinkman Polytron PT-10, (setting number 6 for 20 seconds) and centrifuged for ten minutes at 20,000 x g (Sorvall RC-2), 4°C. The supernatant was discarded, and the pellet was resuspended and centrifuged as before. The pellet was resuspended in 20 ml Tris-HCI buffer containing two International Units/ml of adenosine deaminase (Sigma type III from calf intestinal mucosa), incubated at 37°C for 30 minutes, then subsequently at 0°C for ten minutes. The homogenate was again centrifuged, and the final pellet was resuspended in ice-cold 0.05 M Tris-HCI buffer pH 7.7 to a concentration of 20 mg/ml original wet tissue weight and used immediately.
Tissue homogenate (10 mg/ml) was incubated in 0.05 M Tris-HCI buffer pH 7.7 containing 1.0 nM (^3H]-N^e-cyclohexyladenosine ([^3H]-CHA) with or without tests agents in triplicate for one hour at 25°C. Incubation volume was 2 ml. Unbound [^3H]-CHA was separated by rapid filtration under reduced pressure through Whatman glass fiber (GF/B) filters. The filters were rinsed three times with 5 ml of ice cold 0.05 M Tris-HCI buffer pH 7.7. The radio-labeled ligand retained on the filter was measured by liquid scintillation spectrophotometry after shaking the filters for one hour or longer on a mechanical shaker in 10 ml of Beckman Ready-Solv HP scintillation cocktail.
Nonspecific binding was defined as the binding which occurred in the presence of 1 mM theophylline. […] The Scatchard plot was calculated by linear regression of the line obtained by plotting the amount of radioligand bound (pmoles/gram of tissue) [formula] Since the amount of radioligand bound was a small fraction of the total amount added, free radioligand was defined as the concentration (nM) of radioligand added to the incubation mixture. The Hill coefficient was calculated by linear regression of the line obtained by plotting the log of the bound radioligand vs the log of the [formula] The maximal number of binding sites (Bmax) was calculated from the Scatchard plot.

male Swiss-Webster mice = assay: Antiwrithing (AW) test, acetic acid induced writhing; type: in vivo; conditions: Mus musculus, ip; administered intraperitoneally to mice; read-out: ED50 (dose necessary to suppress writhing by 50% relative to vehicle controls)
[1] = test system: Long-Evans rats or squirrel-monkeys; assay: Conditioned avoidance of electric footshock by lever pushing (SIDR); type: in vivo
Protocol: A representative compound of the invention (identified in the Example 5) was also tested for antipsychotic activity according to the following protocol (SIDR). The noted compound has the indicated EDso values (mg/kg) and is considered active as an antipsychotic agent in the test procedure.
Mature male Long-Evans rats or squirrel-monkeys are conditioned to push a lever in order to avoid a painful electric footshock. If the animal fails to push the lever, he receives a shock every ten seconds until the lever is pushed. Shocks can be terminated by pushing the lever. Thereafter, as long as the lever is pushed at least once every 20 seconds, there will be no shock.
Each animal acts as its own control; one weekly session is used to establish baseline behavior and another session later in the week is used as a drug session. Once patterns of avoidance are established, the effects of standard and unknown compounds are studied.

[2] = Receptor Binding RBA—1, 1.0 nM [3H]-CHA
[3] = 1.0 nM [3H]-CHA, read-out: Receptor Binding RBA—1

T1 sequence (P30543 whole entry): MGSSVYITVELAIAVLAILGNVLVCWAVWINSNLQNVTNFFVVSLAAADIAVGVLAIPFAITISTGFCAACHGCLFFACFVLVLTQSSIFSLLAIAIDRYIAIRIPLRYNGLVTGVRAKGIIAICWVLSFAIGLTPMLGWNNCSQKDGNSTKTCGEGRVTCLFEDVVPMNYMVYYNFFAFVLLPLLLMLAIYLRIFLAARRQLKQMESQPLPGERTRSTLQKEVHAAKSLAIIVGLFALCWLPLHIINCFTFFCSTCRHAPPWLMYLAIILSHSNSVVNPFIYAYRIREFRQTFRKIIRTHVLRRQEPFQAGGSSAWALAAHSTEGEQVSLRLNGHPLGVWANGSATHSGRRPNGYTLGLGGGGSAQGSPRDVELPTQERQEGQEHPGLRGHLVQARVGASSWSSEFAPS

SMILES	IC50 (adenosine A2 receptor)	IC50 (adenosine A1 receptor; [2])	IC50 (adenosine A1 receptor; [3])	ED50 (male Swiss-Webster mice)	ED50 ([1]; Rattus norvegicus, species of the result not stated (rats or squirrel-monkeys), read-out: ED50 for blockade of avoidance)	response for blockade of escape ([1]; at 4 mg/kg)
CSC[C@H]1O[C@@H](n2cnc3c(NC4CCCCC4)ncnc32)[C@H](O)[C@@H]1O [Example 9, N^6-[Cyclohexyl]-5'-deoxy-5'-thiomethyladenosine]	7400 nM	9 nM	–	–	–	–
O[C@@H]1[C@H](O)[C@@H](CCl)O[C@H]1n1cnc2c(NC3CCc4ccccc43)ncnc21 (stereo partly shown) [Example 14, N^6-[1-Indanyl]-5'-deoxy-5'-chloroadenosine]	8650 nM	–	218 nM	–	–	–
CSC[C@H]1O[C@@H](n2cnc3c(NCC(c4ccccc4)c4ccccc4)ncnc32)[C@H](O)[C@@H]1O [Example 11, N^6-[2,2-Diphenyl]-5'-deoxy-5'-thiomethyladenosine]	2000 nM	660 nM	–	–	–	–
C[C@@H](Cc1ccccc1)Nc1ncnc2c1ncn2[C@@H]1O[C@H](C)[C@@H](O)[C@H]1O [Example 4, (S)-N^6-[Phenylisopropyl]-5'-deoxyadenosine]	20000 nM	–	556 nM	–	–	–
CSC[C@H]1O[C@@H](n2cnc3c(NC4CCCC4)ncnc32)[C@H](O)[C@@H]1O [Example 10, N^6-[Cyclopentyl]-5'-deoxy-5'-thiomethyladenosine]	7200 nM	–	13 nM	–	–	–
CSC[C@H]1O[C@@H](n2cnc3c(N[C@@H](C)Cc4ccccc4)ncnc32)[C@H](O)[C@@H]1O [Example 8, (S)-N^6-[Phenylisopropyl]-5'-deoxy-5'-thiomethyladenosine]	44000 nM	700 nM	–	–	–	–
CSC[C@H]1O[C@@H](n2cnc3c(NC4CCc5ccccc54)ncnc32)[C@H](O)[C@@H]1O (stereo partly shown) [Example 12, N^6-[1-Indanyl]-5'-deoxy-5'-thiomethyladenosine]	58200 nM	1490 nM	–	3 mg/kg	–	–
C[C@H]1O[C@@H](n2cnc3c(NC4CCCC4)ncnc32)[C@H](O)[C@@H]1O [Example 5, N^6-[Cyclopentyl]-5'-deoxyadenosine]	17200 nM	–	16 nM	0.9 mg/kg	2.8 mg/kg	10%
O[C@@H]1[C@H](O)[C@@H](CCl)O[C@H]1n1cnc2c(NC3CCCCC3)ncnc21 [Example 17, N^6-[Cyclohexyl]-5' -deoxy-5' -chloro-adenosine]	2700 nM	–	2 nM	–	–	–
C[C@H]1O[C@@H](n2cnc3c(NCC(c4ccccc4)c4ccccc4)ncnc32)[C@H](O)[C@@H]1O [Example 1, N^s-[2,2-Diphenylethyl]-5'-deoxyadenosine]	1110 nM	–	227 nM	–	–	–
C[C@H]1O[C@@H](n2cnc3c(NC4CCc5ccccc54)ncnc32)[C@H](O)[C@@H]1O (stereo partly shown) [Example 2, N^6-[1-Indanyl]-5'-deoxyadenosine]	21200 nM	–	1680 nM	–	–	–
O[C@@H]1[C@H](O)[C@@H](CCl)O[C@H]1n1cnc2c(NCC(c3ccccc3)c3ccccc3)ncnc21 [Example 13, N^6-[2,2-Diphenylethyl]-5'-deoxy-5'-chloroadenosine]	240 nM	–	53 nM	–	–	–
C[C@@H](Cc1ccccc1)Nc1ncnc2c1ncn2[C@@H]1O[C@H](CCl)[C@@H](O)[C@H]1O [Example 16, (S)-N^6-[Phenylisopropyl]-5'-deoxy-5'-chloroadenosine]	7900 nM	–	35 nM	–	–	–
C[C@H]1O[C@@H](n2cnc3c(NC4CCCCC4)ncnc32)[C@H](O)[C@@H]1O [Example 6, N^6-[Cyclohexyl]-5'-deoxyadenosine]	21400 nM	–	52 nM	–	–	–
CC(=O)O[C@@H]1[C@H](OC(C)=O)[C@@H](C)O[C@H]1n1cnc2c(NC3CCCc4ccccc43)ncnc21 (stereo partly shown) [Example 22, N^6-1-Tetralinyl-2' ,3'-di-O-acetyl-5'-deoxyadenosine]	–	–	607 nM	–	–	–
C[C@H](Cc1ccccc1)Nc1ncnc2c1ncn2[C@@H]1O[C@H](CCl)[C@@H](O)[C@H]1O [Example 15, (R)-N^6-[Phenylisopropyl]-5'-deoxy-5'-chloro-adenosine]	1600 nM	–	3 nM	1.8 mg/kg	–	–
CSC[C@H]1O[C@@H](n2cnc3c(N[C@H](C)Cc4ccccc4)ncnc32)[C@H](O)[C@@H]1O [Example 7, (R)-N^6[Phenylisopropyl]-5'-deoxy-5'-thiomethyladenosine]	6300 nM	51 nM	–	–	–	–
O[C@@H]1[C@H](O)[C@@H](CCl)O[C@H]1n1cnc2c(NC3CCCC3)ncnc21 [Example 18, N^6-[Cyclopentyl]-5'-deoxy-5'-chloroadenosine]	2800 nM	–	1.2 nM	–	–	–
CC(=O)O[C@@H]1[C@H](OC(C)=O)[C@@H](C)O[C@H]1n1cnc2c(NCc3cccc4ccccc34)ncnc21 [Example 21, N^6-a-Naphthylmethyl-2',3'-di-O-acetyl-5'-deoxyadenosine]	–	–	2520 nM	–	–	–
C[C@H](Cc1ccccc1)Nc1ncnc2c1ncn2[C@@H]1O[C@H](C)[C@@H](O)[C@H]1O [Example 3]	5700 nM	–	40 nM	–	–	–
